Data from patent publication US12624018B1, “Inhibitors of RIPK2 and medical uses thereof” (Odyssey Therapeutics, Inc., priority 2022, dated 2026).
pIC50: −log10 of the molar value.

Molecular target: T1, RIPK2 enzyme (Homo sapiens, UniProt O43353)
T1 construct: purchased Carna 09-128
Experiment: RIPK2 inhibition (ADP-Glo Kinase Assay)
Type: biochemical
Details: RIPK2 5 nM, ATP 150 μM, MBP substrate, read-out: RIPK2 IC50
Summary of the method: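 Swine MBP substrate; compound and 5 nM RIPK2 first mixed for 30 min at room temperature; buffer pH 7.5 HEPES 50 mM with 10 mM MgCl2, 2 mM DTT, 1 mM EGTA, Brij-35, BSA.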

T1 sequence (O43353 1-299 limits assumed): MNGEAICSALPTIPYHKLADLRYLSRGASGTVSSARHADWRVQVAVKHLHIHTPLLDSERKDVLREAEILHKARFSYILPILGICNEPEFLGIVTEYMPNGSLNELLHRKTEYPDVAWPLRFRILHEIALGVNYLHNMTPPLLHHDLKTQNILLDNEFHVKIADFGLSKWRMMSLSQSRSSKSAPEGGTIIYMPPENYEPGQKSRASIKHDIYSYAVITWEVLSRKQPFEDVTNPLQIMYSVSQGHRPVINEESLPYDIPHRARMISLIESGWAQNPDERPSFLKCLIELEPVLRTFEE

Compound | pIC50
CC(C)(C)n1cc(NC(=O)Cc2ncc(Oc3ncnc4ccc(Cl)cc34)cc2F)cn1 [Compound 7, N-(1-(tert-butyl)-1H-pyrazol-4-yl)-2-(5-((6-chloroquinazolin-4-yl)oxy)-3-fluoro-pyridin-2-yl)acetamide] | 7.62
CC(C)(C)n1cc(NC(=O)Cc2ccc(Oc3ccnc4ccc(S(=O)(=O)C5CCNCC5)cc34)cc2F)cn1 [Compound 127, N-(1-(tert-butyl)-1H-pyrazol-4-yl)-2-(2-fluoro-4-((6-(piperidin-4-ylsulfonyl)quinolin-4-yl)oxy)phenyl)acetamide] | > 8.60
Cc1cc(CC(=O)Nc2cnn(C(C)(C)C)c2)c(F)cc1Oc1ccnc2ccc(O[C@H]3C[C@H]4CC[C@@H](C3)N4)cc12 [Compound 410, 2-(4-((6-(((1R,3r,5S)-8-azabicyclo[3. 2.1]octan-3-yl)oxy)quinolin-4-yl)oxy)-2-fluoro-5-methyl-pheny1)-N-(1-(tert-butyl)-1H-pyrazol-4-yl)acetamide] | > 8.60
CNC(=O)c1cc2c(Oc3cc(F)c(CC(=O)Nc4cnn(C(C)(C)C)c4)cc3C)ncnc2cc1OC [Compound 440, 4-(4-(2-((1-(tert-butyl)-1H-pyrazol-4-yl)amino)-2-oxoethyl)-5-fluoro-2-methylphenoxy)-7-methoxy-N-methylquinazoline-6-carboxamide] | > 8.60
Cc1cc(CC(=O)Nc2cnn(C(C)(C)C)c2)ccc1Oc1ccnc2ccc(S(=O)(=O)C3CCNCC3)cc12 [Compound 311, N-(1-(tert-butyl)-1H-pyrazol-4-yl)-2-(3-methyl-4-((6-(piperidin-4-ylsulfonyl)quinolin-4-yl)oxy)phenyl)acetamide] | > 8.60
Cc1cc(CC(=O)Nc2cnn(C(C)(C)C)c2)ccc1Oc1ccnc2ccc([S+](C)[O-])cc12 (single isomer, unassigned) [Compound 322, N-(1-(tert-butyl)-1H-pyrazol-4-yl)-2-(3-methyl-4-((6-(methylsulfinyl)quinolin-4-yl)oxy)phenyl)acetamide] | > 8.60
CN1CCN(c2ccc3nccc(Oc4ccc(CC(=O)Nc5cnn(C(C)(C)C)c5)c(F)c4)c3c2)C(=O)C1 [Compound 156, N-(1-(tert-butyl)-1H-pyrazol-4-yl)-2-(2-fluoro-4-((6-(4-methyl-2-oxopiperazin-1-yl)quinolin-4-yl)oxy)phenyl) acetamide] | 8.35
Cc1cc(CC(=O)Nc2cnn(C(C)(C)C)c2)cc(C)c1Oc1ccnc2ccc(S(C)(=O)=O)cc12 [Compound 445, N-(1-(tert-butyl)-1H-pyrazol-4-yl)-2-(3,5-dimethyl-4-((6-(methylsulfonyl)quinolin-4-yl)oxy)phenyl)acetamide] | > 8.60
COc1ccc2ncnc(Oc3ccc(CC(=O)Nc4cc(C5(C(F)(F)F)CC5)ccn4)c(F)c3)c2c1 [Compound 34, 2-(2-fluoro-4-((6-methoxyquinazolin-4-yl)oxy)phenyl)-N-(4-(1-(trifluoromethyl)cyclopropyl)pyridin-2-yl)acetamide] | 7.48
COc1ccc2ncnc(Oc3cnc(CC(=O)Nc4cc(C(C)(C)C)ncn4)c(F)c3)c2c1 [Compound 33, N-(6-(tert-butyl)pyrimidin-4-yl)-2-(3-fluoro-5-((6-methoxy-quinazolin-4-yl)oxy)pyridin-2-yl)acetamide] | 7.07
CC(C)(C)n1cc(NC(=O)Cc2ccc(Oc3ccnc4ccc(S(C)(=O)=O)cc34)c(F)c2)cn1 [Compound 163, N-(1-(tert-butyl)-1H-pyrazol-4-yl)-2-(3-fluoro-4-((6-(methylsulfonyl)quinolin-4-yl)oxy)phenyl)acetamide] | > 8.60
CC(C)(C)n1cc(NC(=O)Cc2ncc(Oc3ncnc4ccc(F)cc34)cc2F)cn1 [Compound 5, N-(1-(tert-butyl)-1H-pyrazol-4-yl)-2-(3-fluoro-5-((6-fluoroquinazolin-4-yl)oxy)pyridin-2-yl)acetamide] | 7.00
[2H]C([2H])([2H])N1CCC(Oc2ccc3nccc(Oc4cnc(CC(=O)Nc5cnn(C(C)(C)C)c5)c(F)c4)c3c2)CC1 [Compound 129, N-(1-(tert-butyl)-1H-pyrazol-4-yl)-2-(3-fluoro-5-((6-((1-(methyl-d3)piperidin-4-yl)oxy)quinolin-4-yl)oxy)pyridin-2-yl) acetamide] | 8.36
Cc1cc(CC(=O)Nc2cnn(C(C)(C)C)c2)ccc1Oc1ccnc2ccc(-c3cccn(C)c3=O)cc12 [Compound 246, N-(1-(tert-butyl)-1H-pyrazol-4-yl)-2-(3-methyl-4-((6-(1-methyl-2-oxo-1,2-dihydropyridin-3-yl)quinolin-4-yl)oxy)phenyl)acetamide] | 8.42
CC(C)(C)c1cc(NC(=O)Cc2ncc(Oc3ncnc4ccc(OC5CCNCC5)cc34)cc2F)n[nH]1 [Compound 58, N-(5-(tert-butyl)-1H-pyrazol-3-yl)-2-(3-fluoro-5-((6-(piperidin-4-yloxy)quinazolin-4-yl)oxy)pyridin-2-yl)acetamide] | 8.43

Second part, the compound after the results:

pIC50 | Compound
> 8.60 | Cc1c(Oc2ccnc3ccc(C(=O)N4CCC(O)CC4)cc23)ccc(CC(=O)Nc2cnn(C(C)(C)C)c2)c1F [Compound 357, N-(1-(tert-butyl)-1H-pyrazol-4-yl)-2-(2-fluoro-4-((6-(4-hydroxy-piperidine-1-carbonyl)quinolin-4-yl)oxy)-3-methyl-phenyl) acetamide]
> 8.60 | Cc1cc(CC(=O)Nc2cnn(C(C)(C)C)c2)c(F)cc1Oc1ccnc2ccc(C(=O)NC3CNC3)cc12 [Compound 397, N-(azetidin-3-yl)-4-(4-(2-((1-(tert-butyl)-1H-pyrazol-4-yl)amino)-2-oxoethyl)-5-fluoro-2-methyl-phenoxy) quinoline-6-carboxamide]
> 8.60 | CC(C)(C)n1cc(NC(=O)Cc2ccc(Oc3ccnc4ccc(S(=N)(=O)C5CC5)cc34)cc2F)cn1 (centres unmarked) [Compound 72, N-(1-(tert-butyl)-1H-pyrazol-4-yl)-2-(4-((6-(cyclopropanesulf-onimidoyl)quinolin-4-yl)oxy)-2-fluorophenyl) acetamide]
> 8.60 | Cc1cc(CC(=O)Nc2cnn(C(C)(C)C)c2)c(F)cc1Oc1ccnc2ccc(CN3C[C@H]4C[C@@H]3CN4)cc12 [Compound 421, 2-(4-((6-(((1R,4R)-2,5-diazabicyclo[2.2.1]heptan-2-yl)methyl)quinolin-4-yl)oxy)-2-fluoro-5-methylphenyl)-N-(1-(tert-butyl)-1H-pyrazol-4-yl)acetamide]
> 8.60 | Cc1cc(CC(=O)Nc2cnn(C(C)(C)C)c2)c(F)cc1Oc1ccnc2ccc(C(=O)N[C@H]3C[C@H](O)C3)cc12 [Compound 393, 4-(4-(2-((1-(tert-butyl)-1H-pyrazol-4-yl)amino)-2-oxoethyl)-5-fluoro-2-methyl-phenoxy)-N-((1r,3r)-3-hydroxy-cyclobutyl) quinoline-6-carboxamide]
> 8.60 | Cc1cc(CC(=O)Nc2cnn(C(C)(C)C)c2)c(F)cc1Oc1ccnc2ccc(C(=O)N(CCO)CCO)cc12 [Compound 366, 4-(4-(2-((1-(tert-butyl)-1H-pyrazol-4-yl)amino)-2-oxoethyl)-5-fluoro-2-methyl-phenoxy)-N,N-bis(2-hydroxyethyl) quinoline-6-carboxamide]
> 8.60 | Cc1c(Oc2ccnc3ccc(C(=O)N(CCO)CCO)cc23)ccc(CC(=O)Nc2cnn(C(C)(C)C)c2)c1F [Compound 341, 4-(4-(2-((1-(tert-butyl)-1H-pyrazol-4-yl)amino)-2-oxoethyl)-3-fluoro-2-methyl-phenoxy)-N,N-bis(2-hydroxyethyl) quinoline-6-carboxamide]
> 8.60 | Cc1c(Oc2ccnc3ccc(C(=O)N(C)CCO)cc23)ccc(CC(=O)Nc2cnn(C(C)(C)C)c2)c1F [Compound 340, 4-(4-(2-((1-(tert-butyl)-1H-pyrazol-4-yl)amino)-2-oxoethyl)-3-fluoro-2-methyl-phenoxy)-N-(2-hydroxyethyl)-N-methyl-quinoline-6-carboxamide]
> 8.60 | Cc1cc(CC(=O)Nc2cnn(C(C)(C)C)c2)c(F)cc1Oc1ccnc2ccc(-c3ncn(C)n3)cc12 [Compound 427, N-(1-(tert-butyl)-1H-pyrazol-4-yl)-2-(2-fluoro-5-methyl-4-((6-(1-methyl-1H-1,2,4-triazol-3-yl)quinolin-4-yl)oxy)phenyl)acetamide]
> 8.60 | Cc1c(Oc2ccnc3ccc(C(N)=O)cc23)ccc(CC(=O)Nc2cnn(C(C)(C)C)c2)c1F [Compound 334, 4-(4-(2-((1-(tert-butyl)-1H-pyrazol-4-yl)amino)-2-oxoethyl)-3-fluoro-2-methyl-phenoxy) quinoline-6-carboxamide]
> 8.60 | Cc1c(Oc2ccnc3ccc(C(=O)NCCO)cc23)ccc(CC(=O)Nc2cnn(C(C)(C)C)c2)c1F [Compound 339, 4-(4-(2-((1-(tert-butyl)-1H-pyrazol-4-yl)amino)-2-oxoethyl)-3-fluoro-2-methyl-phenoxy)-N-(2-hydroxyethyl) quinoline-6-carboxamide]
> 8.60 | Cc1cc(CC(=O)Nc2cnn(C(C)(C)C)c2)c(F)cc1Oc1ccnc2ccc(C(C)(C)O)cc12 [Compound 433, N-(1-(tert-butyl)-1H-pyrazol-4-yl)-2-(2-fluoro-4-((6-(2-hydroxypropan-2-yl)quinolin-4-yl)oxy)-5-methylphenyl)acetamide]
> 8.60 | Cc1c(Oc2ccnc3ccc(C(=O)N4C[C@@H](C)O[C@@H](C)C4)cc23)ccc(CC(=O)Nc2cnn(C(C)(C)C)c2)c1F [Compound 384, N-(1-(tert-butyl)-1H-pyrazol-4-yl)-2-(4-((6-((2R,6S)-2,6-dimethyl-morpholine-4-carbonyl)quinolin-4-yl)oxy)-2-fluoro-3-methyl-phenyl) acetamide]
> 8.60 | Cc1cc(CC(=O)Nc2cnn(C(C)(C)C)c2)c(F)cc1Oc1ccnc2ccc(C(=O)N3CCC(O)C3)cc12 (single isomer, unassigned) [Compound 376, N-(1-(tert-butyl)-1H-pyrazol-4-yl)-2-(2-fluoro-4-((6-(3-hydroxy-pyrrolidine-1-carbonyl)quinolin-4-yl)oxy)-5-methylphenyl) acetamide]
